# Entries after “also recorded” stand apart in the source; their conditions may differ.
# Columns and labels:
# 22RV1 xenografts = assay: 22RV1 mouse xenograft model; assay type: in vivo, mice; settings: 22RV1 (ETS negative), Olaparib
# Excerpt: (§1) Olaparib was obtained from Axon Medchem (Groningen, The Netherlands).
# DU145 xenografts = assay: DU145 mouse xenograft model; assay type: in vivo, mice; settings: DU145 (ETS negative), Olaparib
# Excerpt: as §1
# VCaP = assay: CAM xenograft tumor weight, VCaP; assay type: in vivo, chicken embryo; settings: extended Olaparib treatment, P<0.05
# Experimental: (§2) The CAM assay was performed as described previously (Zijlstra, A., et al., Cancer research 62, 7083-7092 (2002)). Briefly, fertilized eggs were incubated in a rotary humidified incubator at 38° C. with for 10 days. After releasing the CAM by applying mild amount of low pressure to the hole over the air sac and cutting a square 1-cm^2 window encompassing a second hole near the allantoic vein, cultured human cells that had been pre-treated with siRNA as indicated were detached by trypsinization and re-suspended in complete medium prior to implantation of 2×10^6 cells adjacent to the mesenchyme in each egg. The windows were subsequently, sealed and the eggs were returned to a stationary incubator. Cells were then treated as indicated with 40 mg/kg body weight Olaparib which was administered on day 13, 15 and 17. Day 18 embryos were sacrificed. Tumors were then excised and weighed. […] After incubation of either the metastasis or intravasation assays, the extra-embryonic tumor and CAM, as well as the embryonic liver were harvested and analyzed for the presence of tumor cells by quantitative human alu-specific PCR. […] Quantification of human cells in the extracted DNA was done as described^14. Fluorogenic TaqMan qPCR probes were applied as above, and DNA copy numbers were quantified.
# [1] = test system: DU145 model overexpressing T2:ERG; assay: γH2A.X foci after radiation (DNA double strand break repair), isogenic DU145 model; assay type: cell-based; settings: DU145, pre-treated with 10 μM Olaparib, then radiation
# Experimental: The effect of ETS overexpression on repair of DNA double strand breaks was assayed. Isogenic PC3 and DU145 models, respectively, overexpressing either T2:ERG or ERG with a deleted ETS domain were pre-treated with or without 10 μM Olaparib and then treated with radiation. Immunofluorescence staining of γH2A.X foci was used to assess total levels of DNA damage and repair rate. The number of cells with >10 γH2A.X foci were quantified at each time point as indicated. Representative photomicrographs were taken 24 hours after treatment using an Olympus confocal microscope with a 100× Oil objective. All experiments were run in triplicate. Error bars are standard error of the mean.
# DU145 cells = assay: Colony formation after radiation, isogenic DU145 model overexpressing T2:ERG; assay type: cell-based; settings: DU145, pre-treated with 10 μM Olaparib
# Experimental: The effect of ETS overexpression on radioresistance was assayed. Isogenic PC3 or DU145 models overexpressing either T2:ERG or ERG with a deleted ETS domain were pre-treated with or without 10 μM Olaparib and then treated with different doses of radiation as indicated. Colony formation was assessed. Experiments were also performed in which cells were pre-treated with either PARP1 or control siRNA prior to radiation. Western blot analysis was used to assess PARP knockdown efficiency in the inset. Total Poly(ADP-ribose) (or PAR) levels were assessed by Western blot analysis from total cell lysates. All experiments were run in triplicate. Error bars are standard error of the mean.
# PC3-ERG xenografts = assay: PC3-ERG mouse xenograft model; settings: P=0.007 for PARP inhibition
# Experimental: Four weeks old male Balb C nu/nu mice were purchased from Charles River, Inc. (Charles River Laboratory, Wilmington, Mass.). VCaP (2×10^6 cells), PC3-luciferase-control (1×10^5 cells) or PC3-luciferase-ERG (1×10^5 cells) stable cells were resuspended in 100 μl of saline with 50% Matrigel (BD Biosciences, Becton Drive, NJ) and were implanted subcutaneously into the left flank region of the mice. Mice were anesthetized using a cocktail of xylazine (80-120 mg/kg, IP) and ketamine (10 mg/kg, IP) for chemical restraint before tumor implantation. All tumors were staged for three week before starting the drug treatment. After week 3 for VCaP cells or after 48 hours for PC3 cells, mice (10 per treatment group) were treated with NU7026 (25 mg/kg, IP), Olaparib (40 mg/kg, IP) daily five times a week. Olaparib was obtained from Axon Medchem (Groningen, The Netherlands). Growth in tumor volume was recorded weekly by using digital calipers and tumor volumes were calculated using the formula (π/6) (L×W2), where L=length of tumor and W=width. Loss of body weight during the course of the study was also monitored weekly.
# [2] = test system: RWPE cells overexpressing SLC45A3-BRAF; assay: Basement membrane matrix invasion assay, RWPE-SLC45A3-BRAF cells; assay type: cell-based, human
# Experimental: For invasion assays, the prostate cell lines RWPE-1 and VCaP were transfected with siRNA or negative controls as indicated. NU7026 (Sigma) and NU1025 (Calbiochem) were dissolved in DMSO and stored at −20° C. in the dark. Forty-eight hours post-transfection/transduction, cells were seeded onto the basement membrane matrix (EC matrix, Chemicon, Temecula, Calif.) in the chamber insert with […] pores of a 24-well culture plate in serum free media. Cells were attracted to the lower chamber by the addition of complete media as a chemoattractant. After 48 hours incubation at 37° C. with 5% CO2, the non-invading cells and EC matrix were gently removed with a cotton swab. Invasive cells, which were located on the lower side of the membrane, were stained with crystal violet, air dried and photographed. To quantify the relative number of invaded cells, colorimetric assays were performed by treating the inserts with 150 μl of 10% acetic acid (v/v) and measuring absorbance of each condition at 560 nm using a spectrophotometer (GE Healthcare).
# RWPE-ERG cells = assay: Chicken chorioallantoic membrane (CAM) intravasation assay, RWPE-ERG cells; assay type: in vivo, chicken embryo; settings: lower CAM three days after implantation, 40 mg/kg Olaparib, P<0.1
# Experimental: as §2
# T-ALL cell lines = assay: T-ALL cell lines: neutral COMET assays and soft agar colony formation; assay type: cell-based; settings: with or without 10 μM Olaparib for 48 hours (COMET); soft agar colony formation
# Experimental: The effect of PARP1 inhibitors on T-ALL cell lines was assayed using Western blot analysis of several T-ALL cell lines comparing total ERG expression levels. In addition, neutral COMET assays were performed on a panel of T-ALL cell lines. RWPE was used as an ETS negative control and VCaP cells were used for comparison to an ETS positive model. Cells were treated with or without 10 μM Olaparib for 48 hours as indicated. Soft agar colony formation was performed on cells treated with or without Olaparib as indicated. All experiments were run in triplicate. Error bars are standard error of the mean.
structure (smiles),measurement,setting,value
"O=C(c1cc(Cc2n[nH]c(=O)c3ccccc23)ccc1F)N1CCN(C(=O)C2CC2)CC1 [Olaparib, 4-[3-(4-Cyclopropanecarbonylpiperazine-1-carbonyl)-4-fluorobenzyl]-2H-phthalazin-1-one]",xenograft growth,22RV1 xenografts,not responsive; also recorded: did not inhibit the growth
same,xenograft growth,DU145 xenografts,not responsive; also recorded: did not inhibit the growth
same,tumor size (weight) on CAM,VCaP,significantly smaller
same,ERG-enhanced DNA DSB damage repair (γH2A.X foci),[1],blocked; also recorded: reversed by PARP inhibition
same,ERG induced radiation resistance (colony formation),DU145 cells,blocks ERG induced radiation resistance; also recorded: reversed by PARP inhibition
same,xenograft growth,PC3-ERG xenografts,significantly sensitize the PC3 cells to PARP inhibition
same,invasion of RWPE SLC45A3-BRAF (negative control),[2],does now effect invasion
same,ERG-mediated intravasation,RWPE-ERG cells,sufficient to block ERG-mediated intravasation
same,sensitivity of T-ALL cell lines,T-ALL cell lines,sensitive to PARP1 inhibition; also recorded: sensitive to PARP inhibition

# — patent US20120035244A1, “PARP1 TARGETED THERAPY” (THE REGENTS OF THE UNIVERSITY OF MICHIGAN, priority 2010, published 2012)
